Source: patent US7321027B2, “Small technetium-99m and rhenium labeled agents and methods for imaging tumors” (President and Fellows of Harvard College, priority 2000, dated 2008)

What was measured:
[1] = system: B16/F0 murine melanoma cells; assay: In-vitro tumor-cell uptake, melanoma cells; type: cell-based; details: for % active: active part of in-vitro uptake, 37° C. vs 4° C.
Description: In-Vitro Tumor-Uptake Studies. Tumor-cell uptake studies in B16/F0 murine melanoma cells were performed with complexes Tc-(Compound A-D and H-M) at 37° C. and 4° C. Additionally, tumor-cell uptake of complex Tc-(Compound A) was investigated in another rapidly dividing MCF-7 human breast cancer cell line.
In-Vitro Cell Studies. Murine B16/F0 melanoma cells and human MCF-7 breast cancer cells were obtained from American Type Culture Collection, Manassas Va., (ATCC) and were grown in T-175 flasks in 14 mL Dulbecco's Modified Eagle Medium (D-MEM; Gibco, Life Technology, Gaithersburg, Md.) containing 4500 mg/L D-glucose, L-glutamine, and pyridoxine hydrochloride, 110 mg/L sodium pyruvate, 10% fetal bovine serum (FBS), 0.2% gentamicin and 0.5% penicillin-streptomycin solution. All cells were harvested from cell culture flasks by trypsinization with 1 mL trypsin-EDTA solution (0.25% trypsin, 1 mM EDTA×4 Na) (Gibco). After being washed with 12 mL Dulbecco's Phosphate-Buffered Saline (PBS) (Gibco), pH 7.2 (Ca^2+- and Mg^2+-free; g/L KCl, 0.20; KH2PO4, 0.20; NaCl, 8.00; Na2HPO4, 1.15), the cells were counted and resuspended in 8 mL S-MEM (Gibco) (Ca^2+ free, with reduced Mg^2+ content) and stored at 4° C. until use.
For in-vitro tumor-cell accumulation studies, 5×10^6 cells in polypropylene test tubes were incubated at 37° C. or 4° C., with intermittent agitation with 1-2 μCi (5 μL) ^99mTc-complex Tc-(Compound A-D) in a total volume of 350 μL S-MEM. At appropriate time intervals the tubes were vortexed and 8-μL samples were layered on 350 μL cold FBS in a 400-μL Eppendorf microcentrifuge tube. After centrifugation at 15,000 rpm for 2 min, the tubes were frozen in a dry ice-acetone bath. While still frozen, the bottom tip of the microcentrifuge tube containing the cell pellet was cut and placed in a counting tube. The remaining portion of the tube with the supernatant was placed in a separate counting tube. Both fractions were counted for radioactivity in a γ-counter (WALLAC, 1480 WIZARD 3″™). The amount of supernatant in the cell pellet was determined to be <1% in separate experiments. The percentage cell uptake of the ^99mTc-complex was calculated as: % uptake=[cpm(pellet)]/[cpm(pellet)+cpm(supernatant)]×100

B16/F0 murine melanoma = assay: In-vivo tumor uptake and biodistribution; parameters: species or system C57B16 mice
Description: In-Vivo Tumor Uptake. To study the tumor uptake of ^99mTc-complexes, Tc-(Compound A-D and J-K), in vivo, biodistribution experiments at 1 h and 6 h after their administration were carried out in C57B16 mice with palpable B16 melanoma nodules. The biodistribution data including melanoma/nontumor (M/NT) ratios for selected organs are summarized in Table 4 and 5 as percentage injected dose per gram ([…]).
Animal Studies. All animal experiments were performed in compliance with the Principles of Laboratory Animal Care (NIH publication #85-23, revised 1985). Biodistribution studies and tumor-uptake measurements were performed in C57B16 mice (15 to 20 g) bearing the B16/F0 murine melanoma on the hind limb. See for example the studies described in, which are hereby incorporated by reference, Brandau, W.; Niehoff, T.; Pulawski, P.; Jonas, M.; Dutschka, K.; Sciuk, J.; Coenen, H. H.; Schober, O. Structure Distribution Relationship of Iodine-123-Iodobenzamides as Tracers for the Detection of Melanotic Melanoma. J. Nucl. Med. 1996, 37, 1865-1871; Mohanmmed, A.; Nicholl, C.; Titsch, U.; Eisenhut, M. Radiojodinated N-(Alkylaminoalkyl)-Substituted 4-Methoxy-, 4-Hydroxy-, and 4-Aminobenzamides: Biological Investigations for the Improvement of Melanoma-Imaging Agents. Nucl. Med. Biol. 1997, 24, 373-380; Titsch, U.; Mohammed, A.; Wagner, S.; Oberdorfer, F.; Eisenhut, M. Syntheses of N-(2-Diethylaminoethyl)benzamides Suitable for ^99mTc Complexation. J. Labelled Compd. Radiopharm. 1997, 40, 416-418; Dittmann, H.; Coenen, H. H.; Zölzer, F.; Dutschka, K.; Brandau, W.; Streffer, C. In Vitro Studies on the Cellular Uptake of Melanoma Imaging Aminoalkyl-iodobenzamide Derivatives (ABA). Nucl. Med. Biol. 1999, 26, 51-56; and Michelot, J. M.; Moreau, M. F. C.; Veyre, A. J.; Bonafous, J. F.; Bacin, F. J.; Madelmont, J. C.; Bussiere, F.; Souteyrand, P. A.; Mauclaire, L. P.; Chossat, F. M.; Papon, J. M.; Labarre, P. G.; Kauffmann, Ph.; Plagne, R. J. Phase II Scintigraphic Clinical Trial of Malignant Melanoma and Metastases with Iodine-123-N-(2-Diethylaminoethyl 4-Iodobenzamide). J. Nucl. Med. 1993, 34, 1260-1266. The tumor cells (B16/F0), obtained from ATCC, were washed with PBS and transplanted subcutaneously on the left hind flank by an inoculation of 0.5×10^6 cells (0.1 mL). Ten to 14 days later the animals developed palpable tumor nodules 3 to 5 mm in diameter. The biodistribution studies were carried out by tail-vein injection of 25 to 30 μCi (0.05 to 0.1 mL) of the ^99mTc-labeled complexes Tc-(Compound A-D, H, J, K or M). At the designated time after tail-vein administration, the animals were weighed and sacrificed. The organs and tumors were harvested and, when appropriate, blotted dry, weighed, and counted in a gamma counter along with technetium-99m standards of the injected dose. The results are expressed as % ID/g tissue (Table 4 and 5)

CCN(CC)CCN(CCSC(c1ccccc1)(c1ccccc1)c1ccccc1)CC(=O)NCCSC(c1ccccc1)(c1ccccc1)c1ccccc1 [Compound A, N-[(2-diethylaminoethyl)-N-(2-(2-(S-(triphenyl-methyl)thio)ethyl)amino)acetyl]-S-(triphenylmethyl)-2-aminoethane-thiol]
% Tumor uptake (In-vitro, 60 min) 4° C. [1]: 33 ± 2.4%
% Tumor uptake (In-vitro, 60 min) 37° C. [1]: 44 ± 1.6%
% active [1]: 25%
In-vivo M/Blood (B16/F0 murine melanoma; mouse, in vivo): 7.6
In-vivo M/Lung (B16/F0 murine melanoma; mouse, in vivo): 5.4
In-vivo M/Spleen (B16/F0 murine melanoma; mouse, in vivo): 4.2

CCCCN(CCCC)CCN(CCSC(c1ccccc1)(c1ccccc1)c1ccccc1)CC(=O)NCCSC(c1ccccc1)(c1ccccc1)c1ccccc1 [Compound B, N-[(2-dibutylaminoethyl)-N-(2-(2-(S-(triphenylmethyl)thio)ethyl)amino)-acetyl]-S-(triphenylmethyl)-2-aminoethanethiol]
% Tumor uptake (In-vitro, 60 min) 4° C. [1]: 16 ± 1.3%
% Tumor uptake (In-vitro, 60 min) 37° C. [1]: 8 ± 1.9%
In-vivo M/Blood (B16/F0 murine melanoma; mouse, in vivo): 7.6
In-vivo M/Lung (B16/F0 murine melanoma; mouse, in vivo): 2.1
In-vivo M/Spleen (B16/F0 murine melanoma; mouse, in vivo): 4.0

CCN(CC)CCCN(CCSC(c1ccccc1)(c1ccccc1)c1ccccc1)CC(=O)NCCSC(c1ccccc1)(c1ccccc1)c1ccccc1 [Compound C, N-[(3-diethylaminopropyl)-N-(2-(2-(S-(triphenylmethyl)thio)ethyl)amino)-acetyl]-S-(triphenylmethyl)-2-aminoethanethiol]
% Tumor uptake (In-vitro, 60 min) 4° C. [1]: 17 ± 1.5%
% Tumor uptake (In-vitro, 60 min) 37° C. [1]: 62 ± 0.8%
% active [1]: 73%
In-vivo M/Blood (B16/F0 murine melanoma; mouse, in vivo): 7.7
In-vivo M/Lung (B16/F0 murine melanoma; mouse, in vivo): 2.4
In-vivo M/Spleen (B16/F0 murine melanoma; mouse, in vivo): 3.0

CCCCN(CCCC)CCCN(CCSC(c1ccccc1)(c1ccccc1)c1ccccc1)CC(=O)NCCSC(c1ccccc1)(c1ccccc1)c1ccccc1 [Compound D, N-[(3-dibutylaminopropyl)-N-(2-(2-(S-(triphenylmethyl)thio)ethyl)amino)-acetyl]-S-(triphenylmethyl)-2-aminoethanethiol]
% Tumor uptake (In-vitro, 60 min) 4° C. [1]: 56 ± 2.7%
% Tumor uptake (In-vitro, 60 min) 37° C. [1]: 68 ± 2.3%
% active [1]: 18%
In-vivo M/Blood (B16/F0 murine melanoma; mouse, in vivo): 4.3
In-vivo M/Lung (B16/F0 murine melanoma; mouse, in vivo): 1.5
In-vivo M/Spleen (B16/F0 murine melanoma; mouse, in vivo): 1.4

CCN(CC)CCNC(=O)c1ccc(I)cc1 [IBZA, reference compound]
% Tumor uptake (In-vitro, 60 min) 4° C. [1]: 28 ± 1.4%
% Tumor uptake (In-vitro, 60 min) 37° C. [1]: 26 ± 1.4%
In-vivo Tumor uptake, Melanoma (B16/F0 murine melanoma; 60 min): 5.5 % I.D./g
In-vivo M/Blood (B16/F0 murine melanoma; melanoma/blood ratio, 60 min): 8
In-vivo M/Lung (B16/F0 murine melanoma; melanoma/lung ratio, 60 min): <1
In-vivo M/Spleen (B16/F0 murine melanoma; melanoma/spleen ratio, 60 min): 1

O=C1CN(CCN2CCCCC2)CC[S][99Tc]2(=[O])[S]CC[N]12 (stereo not shown) [^99mTc-Compound J]
biodistribution blood (B16/F0 murine melanoma; 1 h post-injection): 2.26 % ID/g
biodistribution brain (B16/F0 murine melanoma; 1 h post-injection): 0.52 % ID/g
biodistribution heart (B16/F0 murine melanoma; 1 h post-injection): 0.91 % ID/g
biodistribution kidney (B16/F0 murine melanoma; 1 h post-injection): 4.26 % ID/g
biodistribution liver (B16/F0 murine melanoma; 1 h post-injection): 14.9 % ID/g
biodistribution lung (B16/F0 murine melanoma; 1 h post-injection): 2.50 % ID/g
biodistribution melanoma (B16/F0 murine melanoma; 1 h post-injection): 5.26 % ID/g
biodistribution muscle (B16/F0 murine melanoma; 1 h post-injection): 0.42 % ID/g
biodistribution spleen (B16/F0 murine melanoma; 1 h post-injection): 3.28 % ID/g
mel/blood ratio (B16/F0 murine melanoma; 1 h post-injection): 2.3
mel/liver ratio (B16/F0 murine melanoma; 1 h post-injection): <1
mel/lung ratio (B16/F0 murine melanoma; 1 h post-injection): 2.1
mel/spleen ratio (B16/F0 murine melanoma; 1 h post-injection): 1.6
biodistribution blood (B16/F0 murine melanoma; 6 h post-injection): 0.20 % ID/g
biodistribution brain (B16/F0 murine melanoma; 6 h post-injection): 0.05 % ID/g
biodistribution heart (B16/F0 murine melanoma; 6 h post-injection): 0.26 % ID/g
biodistribution kidney (B16/F0 murine melanoma; 6 h post-injection): 2.31 % ID/g
biodistribution liver (B16/F0 murine melanoma; 6 h post-injection): 4.62 % ID/g
biodistribution lung (B16/F0 murine melanoma; 6 h post-injection): 0.31 % ID/g
biodistribution melanoma (B16/F0 murine melanoma; 6 h post-injection): 3.33 % ID/g
biodistribution muscle (B16/F0 murine melanoma; 6 h post-injection): 0.15 % ID/g
biodistribution spleen (B16/F0 murine melanoma; 6 h post-injection): 0.20 % ID/g
mel/blood ratio (B16/F0 murine melanoma; 6 h post-injection): 16.7
mel/liver ratio (B16/F0 murine melanoma; 6 h post-injection): <1
mel/lung ratio (B16/F0 murine melanoma; 6 h post-injection): 10.7
mel/spleen ratio (B16/F0 murine melanoma; 6 h post-injection): 16.7
